From patent US8598122B2, “Antagonistic peptides for frizzled-1 and frizzled-2” (Universiteit Maastricht, priority 2009, dated 2013)
Where a SMILES comes first, the peptide text is derived from it.

Test system: kidney
Assay: qPCR of Wnt target genes in kidney after long-term UM206 administration
Format: in vivo, mice
Parameters: key to Rel. exp. Col I / Rel. exp. DDK 2 / Rel. exp. DDK 3 / Rel. exp. Twist: expression normalized to cyclophilin housekeeping gene; key to Rel. exp. α-SMA / Rel. exp. DDK 1 / Rel. exp. α-actin / Rel. exp. LEF / Rel. exp. FN: relative expression, cyclophilin as housekeeping gene
From the text: RNA was isolated using the Trizol method (Invitrogen). For the RT-PCR, the RNA was transcribed to cDNA with iscript™ cDNA synthesis kit (Bio-Rad, Hercules Calif., USA), Syber green (Eurogentec, Ghent, Belgium) was used for the detection of cDNA levels and cyclophilin served as the house keeping gene. In Supplementary methods panel 5, the primer sequences are shown.

Q: How did the “influence on gene expression in the kidney” value (UM206 for five weeks) turn out when `CSCC[C@H](NC(=O)CNC(=O)[C@H](CCC(=O)O)NC(=O)[C@H](CO)NC(=O)[C@@H](NC(=O)[C@H](CCCCN)NC(=O)[C@H](CC(N)=O)NC(=O)[C@H](CS)NC(C)=O)[C@@H](C)O)C(=O)N[C@@H](CC(=O)O)C(=O)NCC(=O)N[C@@H](CS)C(=O)N[C@@H](CCC(=O)O)C(=O)N[C@@H](CC(C)C)C(N)=O` [UM206, Ac-Cys-Asn-Lys-Thr-Ser-Glu-Gly-Met-Asp-Gly-Cys-Glu-Leu-NH2] (Ac-CNKTSEGMDGCEL-NH2) was run?
A: These data indicate that UM206 had no influence on gene expression in the kidney.

Q: What about the “Rel. exp. Col I” value (kidney) of the same compound?
A: 1.39

Q: What about the “Rel. exp. DDK 1” value (kidney) of the same compound?
A: 1.87

Q: And the “Rel. exp. DDK 2” value (kidney)?
A: 1.44

Q: What about the “Rel. exp. DDK 3” value (kidney) of the same compound?
A: 0.87

Q: What about the “Rel. exp. FN” value (kidney) of the same compound?
A: 1.66

Q: What about the “Rel. exp. LEF” value (kidney) of the same compound?
A: 1.70

Q: What about the “Rel. exp. Twist” value (kidney) of the same compound?
A: 1.49

Q: And the “Rel. exp. α-SMA” value (kidney)?
A: 1.21

Q: And the “Rel. exp. α-actin” value (kidney)?
A: 1.06
